Like-named read-outs stand apart in the source and are kept apart here. Blank lines part the entries; values can stand above or below the compound they belong to. Numbered stars: 1 amine (or outer) side, 2 acyl side, 3 side chain; on linkers, the order of the positions; unused ones are H or OH. Bridge positions count the residues as written; N and C are the ends. Square brackets hold non-standard residues; d marks the D form. Peptide text beside a SMILES is read from it. Trp(6-Cl) = N[C@@H](Cc1c[nH]c2cc(Cl)ccc12)C(=O)O; Phe(3-Ph) = N[C@@H](Cc1cccc(-c2ccccc2)c1)C(=O)O; Bip = N[C@@H](Cc1ccc(-c2ccccc2)cc1)C(=O)O; Phe(3-Cl) = N[C@@H](Cc1cccc(Cl)c1)C(=O)O; γGlu = O=C(O)[C@H](CCC(=O)[*:2])N[*:1]; NMeY = CN[C@@H](Cc1ccc(O)cc1)C(=O)O; NMeF = CN[C@@H](Cc1ccccc1)C(=O)O; hPhe = N[C@@H](CCc1ccccc1)C(=O)O; 3Pal = N[C@@H](Cc1cccnc1)C(=O)O; Ahp(2) = CCCCC[C@H](N)C(=O)O; Cba = N[C@@H](CC1CCC1)C(=O)O; Chg = N[C@H](C(=O)O)C1CCCCC1; NMeA = CN[C@@H](C)C(=O)O; βAla = NCCC(=O)O; Sar = CNCC(=O)O
How the values were obtained:
[1] = biological target: T1, FOLR1 (Homo sapiens, UniProt P15328); assay: Peptide binding to FOLR1 (SPR, Biacore 8K); settings: FOLR1-Fc-Avi immobilized, 25° C., Langmuir 1:1 binding model
T1 construct: purchased AcroBiosystems F01-H82F9
Experimental: For analysis of peptide binding, a Biacore 8K instrument was used utilizing either a SA chip or a CAP chip. FOLR1-Fc-Avi (AcroBiosystems, F01-H82F9) was immobilized on the chip using streptavidin-biotin chemistry at 25° C. in PBS-P+ buffer (20 mM phosphate, 2.7 mM KCl, 137 mM NaCl, 0.05% Tween-20, pH 7.4) to a level of 500-2500 RU (dependent on the analyte molecular weight). A dilution series of peptides was prepared in this buffer with a final DMSO concentration of 1% with a top peptide concentration at 50 or 100 nM and 8 further 2-fold dilutions. The SPR analysis was run at 25° C. at a flow rate of 100 μL/min in PBS-P+ with 1% DMSO running buffer and with a 120 second association and 10,000 second dissociation using single cycle kinetics methodology. All data was analyzed using Biacore Insight Evaluation Software version 3.) Data was fitted using a Langmuir 1:1 binding model.
Kd values of peptides of the present disclosure are given in Table 8 below, where Kd 0 nM<A≤10 nM.

[2] = biological target: T2, PSMA (Homo sapiens, UniProt Q04609); assay: Peptide binding to PSMA (SPR, Biacore 8K); settings: His-Avi-PSMA immobilized, 25° C., Langmuir 1:1 binding model
T2 construct: purchased AcroBiosystems PSA-H82Qb
Experimental: For analysis of peptide binding, a Biacore 8K instrument was used utilizing a SA chip. His-Avi-PSMA (AcroBiosystems, PSA-H82Qb) was immobilized on the chip using streptavidin-biotin chemistry at 25° C. in HBS-P+ buffer (10 mM HEPES, 150 mM NaCl, 0.05% Tween-20, pH 7.4) to a level of 800-2200 RU (dependent on the analyte molecular weight). A dilution series of peptides was prepared in this buffer with a final DMSO concentration of 1% with a top peptide concentration between 10-100 nM and 8 further 2-fold dilutions. The SPR analysis was run at 25° C. at a flow rate of 100 μL/min in HBS-P+ with 1% DMSO running buffer and with a 120 second association and 10,000 second dissociation using single cycle kinetics methodology. All data was analyzed using Biacore Insight Evaluation Software version 3. Data was fitted using a Langmuir 1:1 binding model.

[3] = biological target: T3, Human Serum Albumin (HSA) (Homo sapiens, UniProt P02768); assay: HSA-HPLC plasma protein binding (immobilized human serum albumin-HPLC); format: in vitro ADME; settings: HSA-HPLC method, room temperature, estimated from gradient retention times, read-out: % Bound to HSA at r.t.
T3 construct: purchased ChiralPAK HSA HPLC column, 50×4 mm
Source text: • HSA-HPLC method (measurement of drug protein binding by immobilized human serum albumin-HPLC). A 13-minute HPLC (Thermo Vanquish Horizon with Diode Array Detector) gradient method was used to determine the HSA (Human Serum Albumin) binding of novel compounds using a chemically bonded protein stationary phase (ChiralPAK HSA HPLC column, 50×4 mm). The HSA binding values were derived from the gradient retention times that were converted to the logarithm of the equilibrium constant using data from a calibration set of molecules. The % bound to plasma values for the calibrator compounds were converted to the linear free energy values using the following equation: LogK=log[% PPB/(101−% PPB)]. The logarithmic value of the gradient retention times from the experiment were plotted against the linearized values of the percent bound to plasma. The slope and the intercept were used to convert the retention times to linear free energy values (LogK), from which the estimated % protein binding was calculated using the following equation: % Binding=[(101·10^LogK)/(1+10^LogK)]. Aqueous mobile phase (A) was 50 mM ammonium acetate solution, ph7.4 and the organic mobile phase (B) was 2-propanol. […] Chromatograms were recorded at 280 nm by a diode array UV absorption detector. […]

[4] = biological target: T4, Trop-2 (Homo sapiens, UniProt P09758); assay: Conjugate binding to Trop-2 (BLI, GatorPrime); settings: biotinylated peptides immobilized, His-tagged Trop-2, 30° C., Langmuir 1:1 binding model
T4 construct: purchased AcroBiosystems TR2-H5223
T4 sequence (P09758 27-323): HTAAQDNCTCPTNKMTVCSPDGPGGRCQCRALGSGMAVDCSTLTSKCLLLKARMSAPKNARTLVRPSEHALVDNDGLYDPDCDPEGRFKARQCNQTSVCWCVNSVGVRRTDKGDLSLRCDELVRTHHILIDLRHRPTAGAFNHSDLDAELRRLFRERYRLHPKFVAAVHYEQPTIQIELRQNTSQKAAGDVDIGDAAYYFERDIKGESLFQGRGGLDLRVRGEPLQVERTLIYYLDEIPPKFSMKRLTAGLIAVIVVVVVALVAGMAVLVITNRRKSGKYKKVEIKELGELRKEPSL
Experimental: For analysis of peptide binding, a GatorPrime instrument was used utilizing SMAP probes. Biotinylated peptides of 1 μM were immobilized on the sensor using streptavidin-biotin chemistry at 25° C. in HBS-P+ buffer (10 mM HEPES, 150 mM NaCl, 0.05% Tween-20, pH 7.4). A dilution series of His-tagged Trop-2 (AcroBiosystems, TR2-H5223) was prepared in this buffer with a top peptide concentration at 100 nM and 6 further 3-fold dilutions. The BLI analysis was run at 30° C. with a 120 second association and 120 second dissociation. All data was analyzed using GatorLaunch software. Data was fitted using a Langmuir 1:1 binding model.

[5] = system: PSMA expressing cells (LnCap); assay: FACS binding to PSMA expressing cells; format: cell-based; settings: biotinylated compounds
Experimental: LnCap cells, 2e^6 cells/ml
SYTOX viability dye • (1) Washed cells with PBS once. • (2) Incubated cells with 5 ml of Accutase at 37 degrees for 2-5 minutes. Gently rocking the flask until the layer of cells pilling off • (3) Added 15 ml of PBS into flask and transferred to a 50 ml conical tube • (4) Spun down 1600 rpm 3 minutes • (5) Resuspended in 2 ml of PBS, and counted cells • (6) Adjusted cell density to 2e6 cells/ml with PBS and then added 100 uL/well to the plate and mixed well • (7) Spun down 1600 rpm 3 minutes • (8) Add 100 uL of compound/well respectively. Prepared serial dilute compound in PBS, 1 uM to 0.01 nM, 1:3 dilution, 10 point curve • (9) Incubated for 50 minutes total • (10) Washed wells with 150 uL PBS and spun down 1600 rpm 3 min and dumped • (11) Added SA-A647, 1:1000 dilution in FACS buffer, 100 ul/well to respective wells • (12) Incubated for 50 min on ice • (13) Washed with 200 uL PBS spun 1600 rpm 3 min dump • (14) Resuspended in 100 uL SYTOX, 1:1000 dilution in FACS buffer • (15) Acquired

T1 sequence (P15328 25-234): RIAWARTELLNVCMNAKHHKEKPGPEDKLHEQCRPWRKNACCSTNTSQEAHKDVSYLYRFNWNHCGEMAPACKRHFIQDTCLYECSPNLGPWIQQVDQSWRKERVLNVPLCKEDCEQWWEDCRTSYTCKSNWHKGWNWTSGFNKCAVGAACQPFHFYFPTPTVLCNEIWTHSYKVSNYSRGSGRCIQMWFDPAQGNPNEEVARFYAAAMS
T3 sequence (P02768 25-609): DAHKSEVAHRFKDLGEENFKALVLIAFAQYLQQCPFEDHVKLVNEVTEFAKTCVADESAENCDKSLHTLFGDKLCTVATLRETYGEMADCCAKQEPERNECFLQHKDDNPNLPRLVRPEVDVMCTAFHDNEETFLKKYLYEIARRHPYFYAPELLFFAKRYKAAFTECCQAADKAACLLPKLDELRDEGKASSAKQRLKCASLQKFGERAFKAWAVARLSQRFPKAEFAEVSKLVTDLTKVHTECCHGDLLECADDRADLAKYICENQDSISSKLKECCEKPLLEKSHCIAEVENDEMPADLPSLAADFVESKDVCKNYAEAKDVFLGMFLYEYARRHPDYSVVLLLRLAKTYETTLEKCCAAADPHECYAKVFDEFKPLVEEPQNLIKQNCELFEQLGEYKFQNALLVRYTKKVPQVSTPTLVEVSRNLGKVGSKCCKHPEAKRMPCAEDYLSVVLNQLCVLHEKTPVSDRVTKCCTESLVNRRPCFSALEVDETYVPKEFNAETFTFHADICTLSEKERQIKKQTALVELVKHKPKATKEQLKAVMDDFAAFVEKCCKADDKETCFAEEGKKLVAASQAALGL
T2 sequence (Q04609 whole entry): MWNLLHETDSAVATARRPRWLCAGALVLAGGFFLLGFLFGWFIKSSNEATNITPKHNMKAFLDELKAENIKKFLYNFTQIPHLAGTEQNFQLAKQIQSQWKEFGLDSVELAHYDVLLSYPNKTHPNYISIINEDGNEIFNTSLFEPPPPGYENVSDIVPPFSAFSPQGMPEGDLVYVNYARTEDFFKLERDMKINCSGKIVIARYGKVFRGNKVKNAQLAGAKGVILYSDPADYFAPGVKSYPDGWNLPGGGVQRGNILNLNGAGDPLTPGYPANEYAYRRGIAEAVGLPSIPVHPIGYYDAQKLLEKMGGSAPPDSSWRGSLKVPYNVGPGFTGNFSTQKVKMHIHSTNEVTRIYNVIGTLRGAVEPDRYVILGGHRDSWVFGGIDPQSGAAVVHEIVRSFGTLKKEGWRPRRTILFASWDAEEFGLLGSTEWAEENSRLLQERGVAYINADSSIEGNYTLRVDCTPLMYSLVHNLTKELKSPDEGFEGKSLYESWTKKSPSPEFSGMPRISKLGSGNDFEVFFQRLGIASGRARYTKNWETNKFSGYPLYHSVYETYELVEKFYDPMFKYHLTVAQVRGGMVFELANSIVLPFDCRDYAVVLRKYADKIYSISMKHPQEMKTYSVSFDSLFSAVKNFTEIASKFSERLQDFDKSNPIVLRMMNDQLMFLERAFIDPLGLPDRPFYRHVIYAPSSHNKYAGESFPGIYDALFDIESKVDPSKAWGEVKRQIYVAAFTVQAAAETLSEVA

Compound: CC(C)C[C@@H]1NC(=O)[C@H](CCCNC(=N)N)NC(=O)[C@H](C)NC(=O)CSC[C@@H](C(N)=O)NC(=O)[C@H](Cc2ccc(O)cc2)NC(=O)[C@H](Cc2c[nH]c3ccccc23)NC(=O)[C@H](Cc2ccc(O)cc2)N(C)C(=O)[C@H](Cc2ccc(O)cc2)N(C)C(=O)[C@H]([C@@H](C)O)NC(=O)[C@H](CC(=O)O)NC(=O)[C@H](Cc2ccc(O)cc2)NC(=O)[C@H](CC(=O)O)NC(=O)[C@H](Cc2ccccc2)N(C)C1=O [Compound P-10] ({CH2CO}-ARL[NMeF]DYDT[NMeY][NMeY]WYC-NH2; thioether N-13)
Kd [1]: < 10 nM

Compound: C[C@@H](O)[C@@H]1NC(=O)[C@H](CC(=O)O)NC(=O)[C@H](Cc2cccc(Cl)c2)NC(=O)[C@H](CC(=O)O)NC(=O)[C@H](Cc2ccccc2)N(C)C(=O)[C@H](C2CCCCC2)NC(=O)[C@H](CCCNC(=N)N)NC(=O)[C@H](CC(=O)O)NC(=O)CSC[C@@H](C(N)=O)NC(=O)[C@H](Cc2ccc(O)cc2)NC(=O)[C@H](Cc2c[nH]c3ccccc23)NC(=O)[C@H](Cc2ccc(O)cc2)N(C)C(=O)[C@H](Cc2ccc(O)cc2)N(C)C1=O [Compound P-11] ({CH2CO}-DR[Chg][NMeF]D[Phe(3-Cl)]DT[NMeY][NMeY]WYC-NH2; thioether N-13)
Kd [1]: < 10 nM

Compound: C[C@@H](O)[C@@H]1NC(=O)[C@H](CC(=O)O)NC(=O)[C@H](Cc2ccc(O)cc2)NC(=O)[C@H](CC(=O)O)NC(=O)[C@H](Cc2ccccc2)N(C)C(=O)[C@H](C2CCCCC2)NC(=O)[C@H](CCCNC(=N)N)NC(=O)[C@H](CC(=O)O)NC(=O)CSC[C@@H](C(N)=O)NC(=O)[C@H](Cc2ccc(O)cc2)NC(=O)[C@H](Cc2c[nH]c3ccccc23)NC(=O)[C@H](Cc2ccc(O)cc2)N(C)C(=O)[C@H](Cc2ccc(O)cc2)N(C)C1=O [Compound P-12] ({CH2CO}-DR[Chg][NMeF]DYDT[NMeY][NMeY]WYC-NH2; thioether N-13)
Kd [1]: < 10 nM

Compound: CC(C)[C@@H]1NC(=O)[C@H](CC(=O)O)NC(=O)[C@H](Cc2cccc(-c3ccccc3)c2)NC(=O)[C@H](Cc2c[nH]c3ccccc23)NC(=O)CSC[C@@H](C(N)=O)NC(=O)[C@H](CC(=O)O)NC(=O)[C@H](Cc2cccc(-c3ccccc3)c2)NC(=O)[C@H](Cc2c[nH]c3ccccc23)NC(=O)[C@H](CC2CCC2)NC(=O)[C@H](CC(=O)O)NC(=O)[C@H](CO)NC(=O)[C@H](CC(=O)O)NC1=O [Compound P-21] ({CH2CO}-W[Phe(3-Ph)]DVDSD[Cba]W[Phe(3-Ph)]DC-NH2; thioether N-12)
Kd [2]: < 10 nM

More lines, now with the values ahead:

fraction unbound ([3]; plasma): 0.1 to 0.3
Compound: CC[C@H](C)[C@@H]1NC(=O)[C@H](Cc2cccnc2)NC(=O)[C@@H](Cc2ccccc2)NC(=O)CSC[C@@H](C(N)=O)NC(=O)[C@H]([C@@H](C)CC)NC(=O)[C@H]([C@@H](C)CC)NC(=O)[C@H](Cc2ccccc2)NC(=O)[C@H](Cc2ccc(O)cc2)N(C)C(=O)[C@H](CC(=O)O)NC(=O)[C@H](CO)NC(=O)[C@H](C)N(C)C(=O)[C@H](C)N(C)C(=O)[C@H](Cc2cccnc2)NC(=O)[C@H](CC(C)C)NC1=O [Compound P-30] ({CH2CO}-[dF][3Pal]IL[3Pal][NMeA][NMeA]SD[NMeY]FIIC-NH2; thioether N-14)

fraction unbound [3]: 0.1 to 0.3
Compound: CCCCC[C@@H]1NC(=O)CN(C)C(=O)[C@H](C(C)C)NC(=O)[C@H](Cc2c[nH]c3cc(Cl)ccc23)NC(=O)CNC(=O)[C@H]([C@@H](C)O)NC(=O)[C@H](Cc2ccccc2)N(C)C(=O)CNC(=O)[C@H](CCCNC(=N)N)NC(=O)[C@H](Cc2ccc(O)cc2)NC(=O)[C@H](Cc2cccc(Cl)c2)NC(=O)[C@H](C(C)C)NC(=O)[C@H](C)NC(=O)CSC[C@@H](C(N)=O)NC1=O [Compound P-31] ({CH2CO}-AV[Phe(3-Cl)]YRG[NMeF]TG[Trp(6-Cl)]V[Sar][Ahp(2)]C-NH2; thioether N-14)

Kd [4]: 10 to 1000 nM
Compound: C-40: "Conjugate C-40 contains a monocyclic peptide P-40 of Table 3"; made from peptide-3 and DOTA-OSu ([dA]D[Bip]IYPA[Bip]SSES[NMeF]C[βAla][dK](PEG‑DOTA)[γGlu][γGlu]-NH2; bridge N-14; not fully specified (bridges)) [Compound C-40]

EC50 [5]: 100 to 1000 nM
Compound: P-22 ([NMeF]DDSVWD[hPhe]YC-NH2; bridge N-10; not fully specified (N-terminus, bridges)) [Compound P-22]
